What was measured:
MDA-MB-231-CDK12d-res = assay: Proliferation assay CDK12 degrader resistant MDA-MB-231; assay type: cell-based, human; details: for IC50: Homo sapiens, 96 h, CDK12 degrader resistant MDA-MB-231 cells, 4 days, median, read-out: Prolif-MDA MB-231-CDK12d-res, IC50 - [mol/] (median); for Ratio (Prolif-MDA MB-231-CDK12d-res IC50 / Prolif-MDA MB-231 IC50): resistant versus parental MDA-MB-231 cells
Text: (§1) CDK12-degrader resistant cells were generated by propagation of CAL-120 human breast adenocarcinoma cells (DSMZ ACC-459) and MDA-MB-231 human breast cancer cells (ATCC HTB-26) in presence of increasing concentrations of the CDK12 degrader compound example 4 from WO 2021/116178. Initial concentrations of example 4 were 2.0E-08 M for CAL-120 cells and 4.6E-08 M for MDA-MB-231 cells, corresponding to ca. 2-fold the IC50 of inhibition of the cells in an proliferation assay. After the treated cells recovered and proliferated again the concentration of compound example 4 was increased to 3-fold IC50.
(§2) To determine the inhibitory effect of test compounds on proliferation of CAL-120-CDK12d-res, MDA-MB-231-CDK12d-res the cells were plated at a density of 4,000 cells/well in a 96-well multitier plate in 200 microL of their respective growth medium supplemented 10% fetal calf serum. After 24 hours, the cells of one plate (zero-point plate) were stained with crystal violet (see below), while the medium of the other plates was supplemented with the test substances in various concentrations (0 micromol/L, as well as in the range of 0.01-10 micromol/L; the final concentration of the solvent dimethyl sulfoxide was adjusted to 0.1%) using a Tecan HP D300 Digital Dispenser. The cells were incubated for 4 days in the presence of test substances. Cell proliferation was determined by staining the cells with crystal violet: the cells were fixed by adding 20 microL/measuring point of an 11% glutaric aldehyde solution for 15 minutes at room temperature. After three washing cycles of the fixed cells with water, the plates were dried at room temperature. The cells were stained by adding 100 microL/measuring point of a 0.1% crystal violet solution (pH 3.0). After three washing cycles of the stained cells with water, the plates were dried at room temperature. The dye was dissolved by adding 100 microL/measuring point of a 10% acetic acid solution. The extinction was determined by photometry at a wavelength of 595 nm. The change of cell number, in percent, was calculated by normalization of the measured values to the extinction values of the zero-point plate (=0%) and the extinction of the untreated (0 μM) cells (=100%). The IC50 values (inhibitory concentration at 50% of maximal effect) were determined by means of a 4 parameter fit.

CAL-120-CDK12d-res = assay: Proliferation assay CDK12 degrader resistant CAL-120; assay type: cell-based, human; details: for IC50: Homo sapiens, 96 h, CDK12 degrader resistant CAL-120 cells, 4 days, median, read-out: Prolif-CAL-120-CDK12d-res, IC50 - [mol/l] (median); for Ratio (Prolif-CAL-120-CDK12d-res IC50 / Prolif-CAL-120 IC50): resistant versus parental CAL-120 cells
Text: as §1, §2

EFM192A = assay: Proliferation assay: cell line panel, EFM192A; assay type: cell-based; details: Homo sapiens, EFM-192A, 96 h, breast cancer, HER2 positive, 4 days, read-out: Result Category, IC50 (mean)
Text: (§3) Human tumour cells were originally obtained from the American Type Culture Collection (ATCC), from Cell Line Services GmbH (CLS), from the Deutsche Sammlung von Mikroorganismen und Zellkulturen (DSMZ, German Collection of Microorganisms and Cell Cultures), from the Japanese Cancer Research Resources Bank (JCRB), from Public Health England, from the European Collection of Authenticated Cell Cultures (ECACC), from Asterand Biosciences, or from the National Cancer Institute (NCI). Cultivated tumour cells were plated at the density as indicated in Table 6 in 96-well multitier plates in 200 microL of their respective growth medium supplemented 10% fetal calf serum. […] Cell proliferation was determined by staining the cells with crystal violet: the cells were fixed by adding 20 microL/measuring point of an 11% glutaric aldehyde solution for 15 minutes at room temperature. […] The extinction was determined by photometry at a wavelength of 595 nm. The change of cell number, in percent, was calculated by normalization of the measured values to the extinction values of the zero-point plate (=0%) and the extinction of the untreated (0 μM) cells (=100%). […]

HCC1143 = assay: Proliferation assay: cell line panel, HCC1143; assay type: cell-based; details: Homo sapiens, 96 h, breast cancer, triple-negative, 4 days, read-out: Result Category, IC50 (mean)
Text: as §3

MDA-MB-231 = assay: Proliferation assay: cell line panel, MDA-MB-231; assay type: cell-based; details: Homo sapiens, 96 h, breast cancer, triple-negative, 4 days, read-out: Result Category, IC50 (mean)
Text: as §3

MDA-MB-468 = assay: Proliferation assay: cell line panel, MDA-MB-468; assay type: cell-based; details: Homo sapiens, 96 h, breast cancer, triple-negative, 4 days, read-out: Result Category, IC50 (mean)
Text: as §3

JHH-7 = assay: Proliferation assay: cell line panel, JHH-7; assay type: cell-based; details: Homo sapiens, JHH7, 96 h, liver cancer, 4 days, read-out: Result Category, IC50 (mean)
Text: as §3

HT-144 = assay: Proliferation assay: cell line panel, HT-144; assay type: cell-based; details: Homo sapiens, 96 h, melanoma, 4 days, read-out: Result Category, IC50 (mean)
Text: as §3

CYCLIN K = CYCLIN K nuclear protein level: immunofluorescence/high content analysis in CAL-120 cells; assay type: cell-based, human; details: 24 h, nuclear CCNK staining intensity, median, read-out: CYCLIN K degradation IF, DC50 - [mol/l] (median)
Protocol: CAL-120 human breast cancer cells (DSMZ ACC 459) are seeded in 1536-well microtiter plates (800 cells per well) containing 50 nanoL of compounds in Dose-Response. Control wells received DMSO or Example 4. Plates are then incubated for 24 h at 37° C. in an humidified incubator and fixed with 4% PFA for 10 min. Then immunofluorescence (IF) against CYCLIN K (ThermoFisher Scientific CCNK Antibody #PA5-85020, rabbit, 1:200 dilution) is performed using standard IF protocols. Cells are then stained with Hoechst 33342 (Life Technologies, H-1399, 0.1 microg/ml) and imaged on an automated confocal microscopy system (e.g. Perkin Elmer Opera Phenix). Nuclear and cytoplasmic intensity as well as the nuclear/cytoplasmic intensity ratio is determined by automated image analysis using custom generated scripts (MetaXpress). Data is then transferred to Genedata Screener software, normalized to DMSO and control and DC50 values (degrading concentration to achieve 50% reduction of nuclear CCNK staining intensity relative to controls) are reported.

IC50 (MDA-MB-231-CDK12d-res)	IC50 (HCC1143)	IC50 (MDA-MB-231)	IC50 (MDA-MB-468)	IC50 (HT-144)	DC50 (CYCLIN K)	SMILES	Ratio (Prolif-MDA MB-231-CDK12d-res IC50 / Prolif-MDA MB-231 IC50) (MDA-MB-231-CDK12d-res)	IC50 (CAL-120-CDK12d-res)	Ratio (Prolif-CAL-120-CDK12d-res IC50 / Prolif-CAL-120 IC50) (CAL-120-CDK12d-res)	IC50 (EFM192A)	IC50 (JHH-7)
178 nM	≥ 100 nM	≥ 100 nM	30 to 100 nM	30 to 100 nM	> 1000 nM	FC(F)(F)Oc1ccc(-c2cnc(CNc3nc(N4CCOCC4)nn4c(C(F)(F)F)cnc34)[nH]2)cc1 [Example 8, 2-(morpholin-4-yl)-N-({5-[4-(trifluoromethoxy)phenyl]-1H-imidazol-2-yl}methyl)-7-(trifluoromethyl)imidazo[2,1-f][1,2,4]triazin-4-amine]	1.6	173 nM	1.9	≥ 100 nM	30 to 100 nM
156 nM	≥ 100 nM	30 to 100 nM	30 to 100 nM	30 to 100 nM	–	FC(F)(F)c1ccc(-c2cnc(CNc3nc(N4CCOCC4)nn4c(C(F)(F)F)cnc34)[nH]2)cc1 [Example 7, 2-(morpholin-4-yl)-7-(trifluoromethyl)-N-({5-[4-(trifluoromethyl)phenyl]-1H-imidazol-2-yl}methyl)imidazo[2,1-f][1,2,4]triazin-4-amine]	1.7	112 nM	1.1	≥ 100 nM	≥ 100 nM

From US20250066370A1, “BICYCLIC TRIAZINE DERIVATIVES FOR THE TREATMENT OF CANCER” (DEUTSCHES KREBSFORSCHUNGSZENTRUM, priority 2022, published 2025)
